Assay results: PubChem BioAssay (NCI)
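GI50 marks 50% less growth. TGI is the concentration that stops growth completely.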

Experiments:
Assay in all cases: DTP human tumour cell line panel, 384-well format
HOP-92 NSCLC = tested on: HOP-92 NSCLC
A549 NSCLC = tested on: A549 NSCLC
MDA-MB-231 breast = tested on: MDA-MB-231 breast
K-562 leukemia = tested on: K-562 leukemia
SK-MEL-28 melanoma = tested on: SK-MEL-28 melanoma
MOLT-4 leukemia = tested on: MOLT-4 leukemia
NCI-H322M lung = tested on: NCI-H322M lung
LOX IMVI melanoma = tested on: LOX IMVI melanoma
SK-OV-3 ovarian = tested on: SK-OV-3 ovarian
UACC-257 melanoma = tested on: UACC-257 melanoma
CAKI-1 renal = tested on: CAKI-1 renal
T-47D breast = tested on: T-47D breast
M14 melanoma = tested on: M14 melanoma
NCI-H460 NSCLC = tested on: NCI-H460 NSCLC
BT-549 breast = tested on: BT-549 breast
A498 renal = tested on: A498 renal
NCI-H522 lung = tested on: NCI-H522 lung
OVCAR-3 ovarian = tested on: OVCAR-3 ovarian
UO-31 renal = tested on: UO-31 renal
NCI-H226 lung = tested on: NCI-H226 lung
MALME-3M melanoma = tested on: MALME-3M melanoma
SNB-19 CNS = tested on: SNB-19 CNS
SW-620 colon = tested on: SW-620 colon
OVCAR-8 ovarian = tested on: OVCAR-8 ovarian
SR leukemia = tested on: SR leukemia
NCI/ADR-RES ovarian = tested on: NCI/ADR-RES ovarian
SK-MEL-5 melanoma = tested on: SK-MEL-5 melanoma
U251 glioblastoma = tested on: U251 glioblastoma
DU-145 prostate = tested on: DU-145 prostate
IGROV1 ovarian = tested on: IGROV1 ovarian
PC-3 prostate = tested on: PC-3 prostate
HCT-15 colon = tested on: HCT-15 colon
HL-60(TB) leukemia = tested on: HL-60(TB) leukemia
TK-10 renal = tested on: TK-10 renal
MCF7 breast = tested on: MCF7 breast
HCT-116 colon = tested on: HCT-116 colon
CCRF-CEM leukemia = tested on: CCRF-CEM leukemia
MDA-MB-468 breast = tested on: MDA-MB-468 breast
NCI-H23 lung = tested on: NCI-H23 lung
SF-295 CNS = tested on: SF-295 CNS
HCC-2998 colon = tested on: HCC-2998 colon
SN12C renal = tested on: SN12C renal
OVCAR-5 ovarian = tested on: OVCAR-5 ovarian
UACC-62 melanoma = tested on: UACC-62 melanoma
COLO 205 colon = tested on: COLO 205 colon
MDA-MB-435 melanoma = tested on: MDA-MB-435 melanoma
HT29 colon = tested on: HT29 colon
RXF 393 renal = tested on: RXF 393 renal
SK-MEL-2 melanoma = tested on: SK-MEL-2 melanoma
786-0 renal = tested on: 786-0 renal
KM12 colon = tested on: KM12 colon
ACHN renal = tested on: ACHN renal
OVCAR-4 ovarian = tested on: OVCAR-4 ovarian
SF-539 CNS = tested on: SF-539 CNS
SF-268 CNS = tested on: SF-268 CNS
HOP-62 NSCLC = tested on: HOP-62 NSCLC
RPMI-8226 leukemia = tested on: RPMI-8226 leukemia

Compound: Nc1ncn([C@H]2C[C@H](OP(=O)(O)OC[C@H]3O[C@@H](n4cnc5c(=O)[nH]c(N)nc54)C[C@@H]3O)[C@@H](CO)O2)c(=O)n1
- GI50 (HOP-92 NSCLC): 54.5 µM
- TGI (HOP-92 NSCLC): > 100 µM
- GI50 (A549 NSCLC): 10.8 µM
- TGI (A549 NSCLC): > 100 µM
- GI50 (MDA-MB-231 breast): 38.3 µM
- TGI (MDA-MB-231 breast): > 100 µM
- GI50 (K-562 leukemia): 1.48 µM
- TGI (K-562 leukemia): > 100 µM
- GI50 (SK-MEL-28 melanoma): 26.1 µM
- TGI (SK-MEL-28 melanoma): > 100 µM
- GI50 (MOLT-4 leukemia): 0.0566 µM
- TGI (MOLT-4 leukemia): 0.373 µM
- GI50 (NCI-H322M lung): 28.8 µM
- TGI (NCI-H322M lung): > 100 µM
- GI50 (LOX IMVI melanoma): 13.5 µM
- TGI (LOX IMVI melanoma): 37.4 µM
- GI50 (SK-OV-3 ovarian): > 100 µM
- TGI (SK-OV-3 ovarian): > 100 µM
- GI50 (UACC-257 melanoma): > 100 µM
- TGI (UACC-257 melanoma): > 100 µM
- GI50 (CAKI-1 renal): 7.79 µM
- TGI (CAKI-1 renal): > 100 µM
- GI50 (T-47D breast): 13 µM
- TGI (T-47D breast): 47 µM
- GI50 (M14 melanoma): 0.922 µM
- TGI (M14 melanoma): > 100 µM
- GI50 (NCI-H460 NSCLC): 0.763 µM
- TGI (NCI-H460 NSCLC): > 100 µM
- GI50 (BT-549 breast): 6.95 µM
- TGI (BT-549 breast): 40.6 µM
- GI50 (A498 renal): 37.7 µM
- TGI (A498 renal): > 100 µM
- GI50 (NCI-H522 lung): 4 µM
- TGI (NCI-H522 lung): 71.3 µM
- GI50 (OVCAR-3 ovarian): > 100 µM
- TGI (OVCAR-3 ovarian): > 100 µM
- GI50 (UO-31 renal): > 100 µM
- TGI (UO-31 renal): > 100 µM
- GI50 (NCI-H226 lung): 32.7 µM
- TGI (NCI-H226 lung): > 100 µM
- GI50 (MALME-3M melanoma): 20.6 µM
- TGI (MALME-3M melanoma): > 100 µM
- GI50 (SNB-19 CNS): > 100 µM
- TGI (SNB-19 CNS): > 100 µM
- GI50 (SW-620 colon): 18.5 µM
- TGI (SW-620 colon): > 100 µM
- GI50 (OVCAR-8 ovarian): 10.8 µM
- TGI (OVCAR-8 ovarian): > 100 µM
- GI50 (SR leukemia): 6.81 µM
- TGI (SR leukemia): 25.5 µM
- GI50 (NCI/ADR-RES ovarian): > 100 µM
- TGI (NCI/ADR-RES ovarian): > 100 µM
- GI50 (SK-MEL-5 melanoma): 0.437 µM
- TGI (SK-MEL-5 melanoma): 10.7 µM
- GI50 (U251 glioblastoma): 11.2 µM
- TGI (U251 glioblastoma): > 100 µM
- GI50 (DU-145 prostate): 33.3 µM
- TGI (DU-145 prostate): > 100 µM
- GI50 (IGROV1 ovarian): > 100 µM
- TGI (IGROV1 ovarian): > 100 µM
- GI50 (PC-3 prostate): 28.4 µM
- TGI (PC-3 prostate): > 100 µM
- GI50 (HCT-15 colon): > 100 µM
- TGI (HCT-15 colon): > 100 µM
- GI50 (HL-60(TB) leukemia): 1.16 µM
- TGI (HL-60(TB) leukemia): 18.2 µM
- GI50 (TK-10 renal): 32.2 µM
- TGI (TK-10 renal): > 100 µM
- GI50 (MCF7 breast): 14 µM
- TGI (MCF7 breast): > 100 µM
- GI50 (HCT-116 colon): 2.79 µM
- TGI (HCT-116 colon): > 100 µM
- GI50 (CCRF-CEM leukemia): 0.0724 µM
- TGI (CCRF-CEM leukemia): 1.88 µM
- GI50 (MDA-MB-468 breast): 0.0431 µM
- TGI (MDA-MB-468 breast): 0.368 µM
- GI50 (NCI-H23 lung): > 100 µM
- TGI (NCI-H23 lung): > 100 µM
- GI50 (SF-295 CNS): > 100 µM
- TGI (SF-295 CNS): > 100 µM
- GI50 (HCC-2998 colon): 2.82 µM
- TGI (HCC-2998 colon): > 100 µM
- GI50 (SN12C renal): 5.84 µM
- TGI (SN12C renal): 26.4 µM
- GI50 (OVCAR-5 ovarian): 77.6 µM
- TGI (OVCAR-5 ovarian): > 100 µM
- GI50 (UACC-62 melanoma): 26.6 µM
- TGI (UACC-62 melanoma): > 100 µM
- GI50 (COLO 205 colon): 68.9 µM
- TGI (COLO 205 colon): > 100 µM
- GI50 (MDA-MB-435 melanoma): 43.6 µM
- TGI (MDA-MB-435 melanoma): > 100 µM
- GI50 (HT29 colon): 46.5 µM
- TGI (HT29 colon): > 100 µM
- GI50 (RXF 393 renal): 1.05 µM
- TGI (RXF 393 renal): 6.21 µM
- GI50 (SK-MEL-2 melanoma): > 100 µM
- TGI (SK-MEL-2 melanoma): > 100 µM
- GI50 ([…]-0 renal): 3.34 µM
- TGI (786-0 renal): 31.1 µM
- GI50 (KM12 colon): > 100 µM
- TGI (KM12 colon): > 100 µM
- GI50 (ACHN renal): 2.33 µM
- TGI (ACHN renal): 83.2 µM
- GI50 (OVCAR-4 ovarian): > 100 µM
- TGI (OVCAR-4 ovarian): > 100 µM
- GI50 (SF-539 CNS): 20.8 µM
- TGI (SF-539 CNS): > 100 µM
- GI50 (SF-268 CNS): 12.4 µM
- TGI (SF-268 CNS): 56.6 µM
- GI50 (HOP-62 NSCLC): 1.83 µM
- TGI (HOP-62 NSCLC): 53.3 µM
- GI50 (RPMI-8226 leukemia): 0.0714 µM
- TGI (RPMI-8226 leukemia): 0.451 µM
